Data from PubChem BioAssay AID1253 (Columbia University Molecular Screening Center, 2008).
The source made the active and inactive calls.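 Rule for the calls: active = IC50 under 10 µM in the follow-up dose response; inactive = IC50 10 µM or more, or under 40% single-dose inhibition.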

Target: Tyrosine-protein phosphatase non-receptor type 22 (Homo sapiens) (UniProt Q9Y2R2)
Assay: PTPN22 enzyme inhibition – biochemical, DiFMUP fluorescence, retest and dose response, confirmation (AID 1253)
Details: recombinant LYP; for inhibition: at 10 µM, active compounds read high

Tyrosine-protein phosphatase non-receptor type 22 (Homo sapiens), sequence (Q9Y2R2 whole entry, looked up): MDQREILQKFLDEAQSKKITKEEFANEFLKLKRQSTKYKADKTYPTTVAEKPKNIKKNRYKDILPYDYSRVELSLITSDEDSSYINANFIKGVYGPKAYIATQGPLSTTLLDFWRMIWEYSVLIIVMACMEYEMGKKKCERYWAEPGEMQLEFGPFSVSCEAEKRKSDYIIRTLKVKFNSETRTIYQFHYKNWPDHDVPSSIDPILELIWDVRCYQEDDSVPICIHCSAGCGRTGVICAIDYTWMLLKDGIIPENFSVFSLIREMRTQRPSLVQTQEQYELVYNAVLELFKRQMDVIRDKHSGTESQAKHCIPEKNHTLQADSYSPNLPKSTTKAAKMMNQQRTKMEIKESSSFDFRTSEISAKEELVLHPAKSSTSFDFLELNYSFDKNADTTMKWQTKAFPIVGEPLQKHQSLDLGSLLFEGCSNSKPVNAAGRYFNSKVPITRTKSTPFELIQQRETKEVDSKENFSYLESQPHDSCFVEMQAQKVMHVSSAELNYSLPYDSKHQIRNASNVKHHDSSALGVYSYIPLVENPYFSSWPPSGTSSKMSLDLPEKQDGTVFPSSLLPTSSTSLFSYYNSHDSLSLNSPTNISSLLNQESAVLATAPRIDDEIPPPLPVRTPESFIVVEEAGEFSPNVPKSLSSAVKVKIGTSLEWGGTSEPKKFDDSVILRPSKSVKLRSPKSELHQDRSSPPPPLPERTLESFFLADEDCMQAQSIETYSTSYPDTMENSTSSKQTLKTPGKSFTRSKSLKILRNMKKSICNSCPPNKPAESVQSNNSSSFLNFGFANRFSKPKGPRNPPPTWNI

SMILES	inhibition	IC50
Cn1c(=O)cc(SCC(=O)NCCN2CCN(c3ccccc3F)CC2)c2cc(Cl)ccc21	inactive	–
COc1ccc(-n2nnnc2SCC(=O)c2ccc(O)c(O)c2)cc1	inactive	–
CC(=O)Nc1ccc(NC(=O)c2ccccc2CC[N+](=O)[O-])cc1	inactive	–
CCCSc1nc(C)c(-c2csc(C(C#N)=C3CCCC3)n2)cc1C#N	inactive	–
O=C(CSc1nnc(-c2cccs2)n1-c1cccc(Cl)c1)c1cccc2c1OCCO2	inactive	–
O=C(Nc1ccc2oc(-c3ccc4ccccc4c3)nc2c1)c1ccc2c(c1)OCCO2	inactive	–
COc1cccc(OC)c1-c1nn2c(-c3cc(-c4ccccc4)n[nH]3)nnc2s1	–	4710 nM
O=C(Cn1cnc2ccccc21)Nc1ccc(C(=O)O)cc1	inactive	–
Cc1ccc(C)c(OCC(=O)N/N=C/c2c(C)nn(-c3ccccc3)c2Cl)c1	inactive	–
O=C(NNC(=O)c1ccc2ccccc2c1O)c1ccccc1Cl	inactive	–
Cc1ccc(-n2nc3c4c(cccc4c2=O)-c2ccccc2-3)cc1	inactive	–
CC(C)(C)c1cc(NCCCn2ccnc2)n2ncc(-c3ccc(Cl)cc3)c2n1	inactive	–
Cc1cc(C)n2c(SCC(=O)N3CCN(S(=O)(=O)c4ccc(Cl)cc4)CC3)nnc2n1	inactive	–
COc1ccc(NC(=O)C2CCCO2)cc1Cl (stereo not given)	inactive	–
Cc1ccc(NC(=O)CN2C(=O)S/C(=C\c3ccc(-c4cccc(C(=O)O)c4C)o3)C2=O)cc1	inactive	–
N#Cc1ccccc1CN1C(=O)S/C(=C/c2cccn2-c2cccc(C(=O)O)c2)C1=O	inactive	–
O=C(c1cccs1)c1no[n+]([O-])c1C(=O)c1cccs1	–	1660 nM
COC(=O)c1sccc1-n1cccc1C(=O)N1CCOCC1	inactive	–
Cc1cccc(N(C(=O)c2ccc(Cl)cc2)C2CS(=O)(=O)CC2OC(=O)c2ccc(Cl)cc2)c1 (stereo not given)	inactive	–
COc1ccc2c(C)cc(SCC(=O)Nc3c(C)n(C)n(-c4ccccc4)c3=O)nc2c1	inactive	–
S=c1[nH]nc(COc2ccccc2)n1/N=C/C(Cl)=C/c1ccccc1	inactive	–
CCCC(=O)Nc1ccc2c(c1)nc(CCNC(=O)c1ccccc1)n2C	inactive	–
Cc1ccc(CNC(=O)c2ccccc2N)cc1	inactive	–
Cc1nc(NC(=O)CC(C)C)sc1-c1csc(Nc2ccc(Cl)cc2)n1	inactive	–
CCOC(=O)c1ccc(NC(=O)CSc2nc(NC(=O)c3ccccc3)c3c(C)c(C)oc3n2)cc1	inactive	–

SMILES	inhibition	IC50
O=C(O)CCCCCNc1nc(=S)[nH]c2ccccc12	inactive	–
N#CC(c1cccc(C(F)(F)F)c1)(c1ncc(C(F)(F)F)cc1Cl)N1CCOCC1 (stereo not given)	inactive	–
Cc1nnc(NC(=O)Nc2ccc(Cl)c(Cl)c2)s1	inactive	–
Cc1cc(C)n2nc(SCc3cc(=O)oc4cc(O)ccc34)nc2n1	inactive	–
COc1ccc(S(=O)(=O)Nc2ccc(S(=O)(=O)N3CCCCC3)cc2)cc1	inactive	–
COc1c(N2CCN(C(=S)NCc3ccccc3)C(C)C2)c(F)cc2c(=O)c(C(=O)O)cn(C3CC3)c12 (stereo not given)	inactive	–
O=C(O)CCN1C(=O)/C(=C/c2ccc(-c3nc4ccccc4s3)o2)SC1=S	–	1450 nM
O=C(NNC(=O)c1cc2cc3ccccc3nc2s1)c1cccc(Cl)c1	inactive	–
Brc1ccc2nc(CSc3ncn[nH]3)cn2c1	inactive	–
O=C(N/N=C/c1ccc2ccccc2c1)c1ccc(COc2ccc3c(c2)CCC3)o1	inactive	–
COc1ccc(C2C(=O)N(C3CCCCC3)CC(=O)N2C2CCCCC2)cc1 (stereo not given)	inactive	–
CCOc1ccccc1NC(=O)CN(c1ccc(C)cc1)S(=O)(=O)c1c(C)noc1C	inactive	–
COc1ccc(S(=O)(=O)N2CC3CCCN3c3cc(C(F)(F)F)ccc32)cc1 (stereo not given)	inactive	–
COCCn1c(Cc2ccccc2)nnc1SCc1nc2ccccc2c(=O)[nH]1	inactive	–
Cn1nc(-c2ccc(Cl)cc2)nc2c(=O)n(C)c(=O)nc1-2	–	> 10000 nM (inactive)
O=C(O)CCCN1C(=O)/C(=C/c2ccc(-c3nc4ccccc4s3)o2)SC1=S	–	1130 nM
CCOC(=O)CC(=O)CSc1nc2c(C)c(C)ccc2cc1C	inactive	–
COc1cccc(-c2nnc(NC(=O)c3ccc(S(=O)(=O)N(CC(C)C)CC(C)C)cc3)o2)c1	inactive	–
CCOC(=O)c1ccc(NC(=O)CC2NCCNC2=O)cc1 (stereo not given)	inactive	–
CC1CCN(S(=O)(=O)c2ccc(NN=C(C#N)C#N)cc2)CC1	inactive	–
CCOc1ccc(-c2csc(N)c2C(=O)OC)cc1	inactive	–
Cc1cc(-c2c(C)[nH]n(-c3ccc(Cl)cc3)c2=O)n[nH]1	–	> 10000 nM (inactive)
CCCCN(C(=O)CSc1nnc(Nc2ccc(C)c(C)c2)s1)c1c(N)n(Cc2ccccc2)c(=O)[nH]c1=O	inactive	–
Cc1nn(-c2ccccc2)c(Cl)c1/C=N/Nc1ccc(S(=O)(=O)Nc2ccccc2C(=O)O)cc1[N+](=O)[O-]	inactive	–
CC(C)CNc1nnnc2c1sc1nc(N3CCOCC3)c3c(c12)CC(C)(C)SC3	inactive	–

SMILES	inhibition	IC50
Cc1ccc2oc3nc(C)c(C(=O)Nc4cccc(C(F)(F)F)c4)cc3c(=O)c2c1	inactive	–
O=C(Nc1ccc(-c2nc3ccc(NC(=O)c4cccs4)cc3[nH]2)cc1)c1cccs1	inactive	–
N#Cc1nc(-c2ccc(OCc3ccc(Cl)cc3)cc2)oc1NCCCn1ccnc1	inactive	–
Cc1ccc(-c2nn(CC(=O)NCc3cc(-c4nn(C)c(=O)c5ccccc45)ccc3C)c(=O)c3ccccc23)cc1	inactive	–
c1ccc(-c2ccc(C3=Nn4c(nnc4-c4cc(-c5ccccc5)n[nH]4)SC3)cc2)cc1	inactive	–
O=C(CSc1nc2ccc(S(=O)(=O)N3CCOCC3)cc2[nH]1)N1CCOCC1	inactive	–
Cc1ccc(Cn2c(=N)c(C(=O)NCc3ccco3)cc3c(=O)n4ccccc4nc32)cc1	inactive	–
O=C(CCC(=O)OC(C(=O)c1ccccc1)c1ccccc1)Nc1ccccc1 (stereo not given)	inactive	–
NC(=O)C1CCN(C(c2ccccc2Cl)c2nnnn2CC2CCCO2)CC1 (stereo not given)	inactive	–
CCNC(=O)COc1cc(C)c(Cl)c(C)c1	inactive	–
c1ccc(-c2nccc(-c3ccc(-n4cnc5ccccc54)cc3)n2)nc1	inactive	–
O=C(Nc1nnc(COc2ccc(Cl)cc2)s1)c1ccc([N+](=O)[O-])cc1	inactive	–
CCNC(=S)NNC(=O)c1cccn(Cc2ccc(Cl)cc2Cl)c1=O	inactive	–
CCc1nnc(NS(=O)(=O)c2ccc(NC(=S)NC(=O)/C=C/c3ccc(C(C)C)cc3)cc2)s1	inactive	–
Nc1c(C(=O)Nc2nc3ccccc3s2)sc2nc(-c3cccs3)ccc12	–	1240 nM
COCc1cc(C)nc(Nc2ccccc2C)c1C#N	inactive	–
COc1ccc2cc3cc(C(=O)N4CCN(Cc5ccc6c(c5)OCO6)CC4)oc3nc2c1	inactive	–
O=C(Cn1c(-c2ccc(Cl)cc2)noc1=O)N1CCN(c2ccccc2F)CC1	inactive	–
O=C(CSc1nc2ccccc2c2nc3ccccc3n12)NCc1ccco1	inactive	–
CCCCCCCCC/C(=N\O)c1ccccn1	inactive	–
Nc1c(C(=O)NCc2ccco2)c2nc3ccccc3nc2n1CCc1ccccc1F	inactive	–
C(=C/c1ccnc2nc(SC/C=C/c3ccccc3)nn12)/c1ccccc1	inactive	–
COc1cccc(/C=N/NC(=O)c2ccc(-c3ccccc3)cc2)c1O	inactive	–
COc1cc(OC)cc(C(=O)Nc2ccccc2C(=O)N2CCCC2)c1	inactive	–
CCN(CC)CCCNC(=O)c1c(O)c2ccccc2n(Cc2ccccc2)c1=O	inactive	–
